{"source": "patent US9828573B2", "about": "“Alcohol composition and derivatives thereof” (SHELL OIL COMPANY, priority 2015, dated 2017)", "origin": "cited, not measured here", "tested_on": "Proponibacterium acnes", "details": "Journal of Natural Products Vol. 57, No. 1, pp. 9-17, January 1994", "data": [{"smiles": "CCCCCCCCCCCCCCCO", "note": "[Normal 1-pentadecanol, 1-pentadecanol]", "values": [{"measurement": "activity against Proponibacterium acnes", "value": "specific activity"}]}]}
